The text below walks through data of US10202371B2, “Oxazolidin-2-one-pyrimidine derivatives and the use thereof as phosphatidylinositol-3-kinase inhibitors” (Novartis AG, priority 2012, dated 2019).

Read-outs that look alike come from different tables or passages of the source.

The subject of this assay is SCL-1 cells. Put plainly: BrdU cell proliferation assay SCL-1. The format is cell-based. To be noted: Homo sapiens, BrdU incorporation. The source says: The SCL-1 and SCC12B2 are human cutaneous squamous cell carcinoma (SCC) cell lines derived from naturally occurring, poorly differentiated SCCs. The SCL-1 cell line was originally established in the lab of N. Fusenig at the Cancer Research Center in Heidelberg, and its growth characteristics in vitro in comparison to normal keratinocytes were described previously (Neely et al 1991). The SCC12B2 cell line was established as described previously (Rheinwald & Beckett 1981) from the facial skin of a transplant patient who received immunosuppressive therapy for 7 years. The human SCC cell line Detroit562 was obtained from American Tissue Culture Collection (ATCC). Detroit562 is referred to as Head & Neck squamous cell carcinomas (HNSCC) and was derived from a pharyngeal SCC tumor. […]
Cells of SCC or keratinocyte lines (Detroit562, SCC12B2, SCL1, HaCaT) were used for the proliferation assays when they had reached about 80% to 90% confluency. Cells were then harvested after trypsin-mediated dislodgement from culture flasks, washed in culture medium containing 10% FCS, counted in a hemocytometer and diluted complete culture medium with 5% FCS to obtain a cell density of 5×10^4 cells/ml. […] The cell proliferation was determined on the basis of incorporation of bromodesoxy-uridin (BrdU) into cellular DNA using the chemiluminescent BrdU Cell Proliferation ELISA (Roche article #11 669 915 001). […]

Usually IC50 stands for the concentration that inhibits the measured activity by half.

As for `C[C@H]1[C@H](c2nccs2)OC(=O)N1c1cc(-c2cnc(N)nc2C(F)(F)F)nc(N2CCOCC2)n1` [Example 1, (4S,5R)-3-(2′-Amino-2-morpholin-4-yl-4′-trifluoromethyl-[4,5′]bipyrimidinyl-6-yl)-4-methyl-5-thiazol-2-yl-oxazolidin-2-one], the half-maximal inhibitory concentration (IC50) by setting is: (measurement #1, read-out: anti-proliferative IC50 SCL-1 measurement #1) 351 nM; (measurement #2, read-out: anti-proliferative IC50 SCL-1 measurement #2) 268 nM.
